# Test results: PMC7356692, “Structural Basis of Specific Glucoimidazole and Mannoimidazole Binding by Os3BGlu7” (Biomolecules, 2020)
# Molecular target: T1, Os3BGlu7 (Oryza sativa, UniProt Q75I93)
# T1 construct: gene BGLU7; recombinant from E. coli Origami (DE3); IMAC, fusion tag removed with enterokinase; mature enzyme; two molecules per asymmetric unit
# Experiment: X-ray crystallography, […] Å
# Type: binding
# Settings: crystal soaked in 10 mM mannoimidazole preparation (GIm as contaminant or isomerization product); -1 subsite; pH 6.7
# T1 sequence (Q75I93 29-504): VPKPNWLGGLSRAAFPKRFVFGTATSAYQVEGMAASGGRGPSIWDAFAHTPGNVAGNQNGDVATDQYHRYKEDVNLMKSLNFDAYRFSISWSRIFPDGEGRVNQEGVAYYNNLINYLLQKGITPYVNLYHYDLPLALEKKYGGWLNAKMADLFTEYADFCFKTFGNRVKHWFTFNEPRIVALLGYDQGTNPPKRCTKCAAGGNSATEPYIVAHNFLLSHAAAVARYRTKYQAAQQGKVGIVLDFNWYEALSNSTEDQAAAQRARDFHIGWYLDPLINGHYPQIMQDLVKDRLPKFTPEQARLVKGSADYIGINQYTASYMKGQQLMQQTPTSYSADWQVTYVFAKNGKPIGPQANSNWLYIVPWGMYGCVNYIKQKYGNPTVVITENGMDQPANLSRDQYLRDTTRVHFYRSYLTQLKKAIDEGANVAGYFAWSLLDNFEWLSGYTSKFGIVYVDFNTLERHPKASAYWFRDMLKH
smiles,measurement,value
OC[C@@H]1[C@@H](O)[C@H](O)[C@@H](O)c2nccn21 [glucoimidazole],"X-ray crystallography, 2.3 Å",electron densities of ligand in the active sites of both protein molecules in the asymmetric unit
